In patent publication EP4653437A2 (Innovo Therapeutics Inc., priority 2023, dated 2024):

Columns and labels:
A549 cells = assay: Measurement of PGE2-increasing activity in A549 cells (IL-1β stimulated, PGE2 quantified in supernatant); type: cell-based; conditions: for fold induction at 1 µM: Homo sapiens, 24 h, concentration of 1 µM of each compound, IL-1β treated A549 cells, read-out: Increased PGE2 production in A549 cells
Outline: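 PGE2 secreted into the supernatant was measured by immunoassay 24 h after treatment. Before treatment, A549 cells were cultured 24 h in 10% FBS F12K, washed, and placed in serum-free medium containing compound (DMSO 0.1% final) plus or minus IL-1β, incubated at 37 °C, 5% CO2.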

human 15-PGDH = molecular target: T1, human 15-PGDH (Homo sapiens, UniProt P15428); assay: Evaluation of 15-PGDH inhibitory activity (fluorescence enzyme assay, NAD+/PGE2); type: biochemical; conditions: human 15-PGDH enzyme, fluorescence Vmax
T1 construct: purchased R&D System 5660-DH
T1 sequence (P15428 1-266): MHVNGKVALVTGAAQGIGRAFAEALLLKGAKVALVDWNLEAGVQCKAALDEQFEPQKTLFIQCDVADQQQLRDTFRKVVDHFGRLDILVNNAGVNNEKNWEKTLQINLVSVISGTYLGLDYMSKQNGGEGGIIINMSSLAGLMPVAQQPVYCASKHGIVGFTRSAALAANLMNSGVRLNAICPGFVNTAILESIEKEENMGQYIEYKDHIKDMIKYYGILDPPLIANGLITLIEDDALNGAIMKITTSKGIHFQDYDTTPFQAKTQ
Procedure: 15-PGDH inhibition activity of Example compounds was measured as follows. 6.7 ng of human 15-PGDH (R&D System# 5660-DH) enzyme (10 µL) was added to a black 96 well plate, 60 µL of buffer (50 mM Tris-HCl, pH 7.5, 0.01% Tween 20) was added, and 10 µL of 200 µM β-Nicotinamide adenine dinucleotide sodium salt (Sigma, Cat# N0632-5G) was added. 10 µL of (10x) compound solution in DMSO was added and reacted for 10 minutes at room temperature.

Structure (SMILES): Cc1noc(C)c1-c1ncc(-c2cccc3c(C(=O)N4CCCCC4)cnn23)cc1F [Example 381, [7-[6-(3,5-dimethylisoxazol-4-yl)-5-fluoro-3-pyridyl]pyrazolo[1,5-a]pyridin-3-yl]-(1-piperidyl)methanone]
- fold induction at 1 µM (A549 cells): > 1.5
- IC50 (human 15-PGDH): ≤ 0.1 µM

Structure (SMILES): CN1CCN(c2ccc(-c3cccc4c(C(=O)N5CCCCC5)cnn34)cn2)CC1 [Example 111, (7-(6-(4-methylpiperazin-1-yl)pyridin-3-yl)pyrazolo[1,5-a]pyridin-3-yl)(piperidin-1-yl)methanone]
- fold induction at 1 µM (A549 cells): > 1.5
- IC50 (human 15-PGDH): ≤ 0.1 µM

Structure (SMILES): O=C(c1cnn2c(-c3ccc(-c4noc(=O)[nH]4)c(F)c3)cccc12)N1CCCCC1 [Example 304, 3-[2-fluoro-4-[3-(piperidine-1-carbonyl)pyrazolo[1,5-a]pyridin-7-yl]phenyl]-4H-1,2,4-oxadiazol-5-one]
- fold induction at 1 µM (A549 cells): > 1.5
- IC50 (human 15-PGDH): ≤ 0.1 µM

Structure (SMILES): CCC1CCCN(C(=O)c2cnn3c(-c4ccc(N5CCOC5=O)nc4)cccc23)C1 (stereo not drawn) [Example 354, 3-(5-(3-(3-ethylpiperidine-1-carbonyl)pyrazolo[1,5-a]pyridin-7-yl)pyridin-2-yl)oxazolidin-2-one]
- fold induction at 1 µM (A549 cells): > 1.5
- IC50 (human 15-PGDH): ≤ 0.1 µM

Structure (SMILES): CNc1nn2c(-c3ccc4c(c3)C(=O)NCC4)cccc2c1C(=O)N1CCCCC1 [Example 160]
- fold induction at 1 µM (A549 cells): < 1.5
- IC50 (human 15-PGDH): > 1 µM

Structure (SMILES): O=C(c1cnn2c(-c3ccc(N4CC5CCC4C5)nc3)cccc12)N1CCCCC1 (stereo not drawn) [Example 215, (7-(6-(2-azabicyclo[2.2.1]heptan-2-yl)pyridin-3-yl)pyrazolo[1,5-a]pyridin-3-yl)(piperidin-1-yl)methanone]
- fold induction at 1 µM (A549 cells): > 1.5
- IC50 (human 15-PGDH): ≤ 0.1 µM

Structure (SMILES): CN1CCN(C(=O)c2cncc(-c3cccc4c(C(=O)N5CCCCC5)cnn34)c2)CC1 [Example 49, (4-methylpiperazin-1-yl)(5-(3-(piperidine-1-carbonyl)pyrazolo[1,5-a]pyridin-7-yl)pyridin-3-yl)methanone]
- fold induction at 1 µM (A549 cells): > 1.5
- IC50 (human 15-PGDH): ≤ 0.1 µM

Structure (SMILES): O=C(c1ccc(-c2cccc3c(C(=O)N4CCCCC4)cnn23)cn1)N1CCNCC1 [Example 82, piperazin-1-yl(5-(3-(piperidine-1-carbonyl)pyrazolo[1,5-a]pyridin-7-yl)pyridin-2-yl)methanone]
- fold induction at 1 µM (A549 cells): < 1.5
- IC50 (human 15-PGDH): ≤ 0.1 µM

Structure (SMILES): CNC(=O)c1ncc(-c2cccc3c(C(=O)N4CCCCC4)cnn23)cc1Cl [Example 262, 3-chloro-N-methyl-5-[3-(piperidine-1-carbonyl)pyrazolo[1,5-a]pyridin-7-yl]pyridine-2-carboxamide]
- fold induction at 1 µM (A549 cells): > 1.5
- IC50 (human 15-PGDH): ≤ 0.1 µM

Structure (SMILES): CC(C)N1Cc2ccc(-c3cccc4c(C(=O)N5CCCCC5)cnn34)cc2C1=O [Example 142, 2-isopropyl-6-(3-(piperidine-1-carbonyl)pyrazolo[1,5-a]pyridin-7-yl)isoindolin-1-one]
- fold induction at 1 µM (A549 cells): > 1.5
- IC50 (human 15-PGDH): ≤ 0.1 µM

Structure (SMILES): O=C1CN(C(=O)c2cncc(-c3cccc4c(C(=O)N5CCCCC5)cnn34)c2)CCN1 [Example 203, 4-[5-[3-(piperidine-1-carbonyl)pyrazolo[1,5-a]pyridin-7-yl]pyridine-3-carbonyl]piperazin-2-one]
- fold induction at 1 µM (A549 cells): > 1.5
- IC50 (human 15-PGDH): ≤ 0.1 µM

Structure (SMILES): O=C(c1cnn2c(-c3ccc4cc[nH]c(=O)c4c3)cccc12)N1CCCCC1 [Example 134, 7-(3-(piperidine-1-carbonyl)pyrazolo[1,5-a]pyridin-7-yl)isoquinolin-1(2H)-one]
- fold induction at 1 µM (A549 cells): > 1.5
- IC50 (human 15-PGDH): ≤ 0.1 µM

Structure (SMILES): O=C(c1cnn2c(-c3cnc(-c4n[nH]c(=O)o4)c(F)c3)cccc12)N1CCCCC1 [Example 373, 5-[3-fluoro-5-[3-(piperidine-1-carbonyl)pyrazolo[1,5-a]pyridin-7-yl]-2-pyridyl]-3H-1,3,4-oxadiazol-2-one]
- fold induction at 1 µM (A549 cells): > 1.5
- IC50 (human 15-PGDH): ≤ 0.1 µM

Structure (SMILES): O=C(Cc1cccnc1)Nc1ncc(-c2cccc3c(C(=O)N4CCCCC4)cnn23)cc1F [Example 362, N-(3-fluoro-5-(3-(piperidine-1-carbonyl)pyrazolo[1,5-a]pyridin-7-yl)pyridin-2-yl)-2-(pyridin-3-yl)acetamide]
- fold induction at 1 µM (A549 cells): > 1.5
- IC50 (human 15-PGDH): ≤ 0.1 µM

Structure (SMILES): Cc1nc(-c2cc(N)cc(-c3cccc4c(C(=O)N5CCCCC5)cnn34)c2)no1 [Example 343, (7-(3-amino-5-(5-methyl-1,2,4-oxadiazol-3-yl)phenyl)pyrazolo[1,5-a]pyridin-3-yl)(piperidin-1-yl)methanone]
- fold induction at 1 µM (A549 cells): > 1.5
- IC50 (human 15-PGDH): ≤ 0.1 µM

Structure (SMILES): O=C(c1cnn2c(-c3ccnc(Cl)c3)cccc12)N1CCCCC1 [Example 8, (7-(2-chloropyridin-4-yl)pyrazolo[1,5-a]pyridin-3-yl)(piperidin-1-yl)methanone]
- fold induction at 1 µM (A549 cells): > 1.5
- IC50 (human 15-PGDH): ≤ 0.1 µM

Structure (SMILES): O=C(c1cnn2c(-c3cnc(-c4noc(=O)[nH]4)c(F)c3)cccc12)N1CCCCC1 [Example 247, 3-[3-fluoro-5-[3-(piperidine-1-carbonyl)pyrazolo[1,5-a]pyridin-7-yl]-2-pyridyl]-4H-1,2,4-oxadiazol-5-one]
- fold induction at 1 µM (A549 cells): > 1.5
- IC50 (human 15-PGDH): ≤ 0.1 µM

Structure (SMILES): Cc1nnc(-c2ccc(-c3cccc4c(C(=O)N5CCCCC5)cnn34)cn2)o1 [Example 364, [7-[6-(5-methyl-1,3,4-oxadiazol-2-yl)-3-pyridyl]pyrazolo[1,5-a]pyridin-3-yl]-(1-piperidyl)methanone]
- fold induction at 1 µM (A549 cells): > 1.5
- IC50 (human 15-PGDH): ≤ 0.1 µM

Structure (SMILES): O=C(c1cnn2c(-c3ccc4cn[nH]c(=O)c4c3)cccc12)N1CCCCC1 [Example 224, 7-(3-(piperidine-1-carbonyl)pyrazolo[1,5-a]pyridin-7-yl)phthalazin-1(2H)-one]
- fold induction at 1 µM (A549 cells): > 1.5
- IC50 (human 15-PGDH): ≤ 0.1 µM

Structure (SMILES): O=C(Nc1cccc(-c2cccc3c(C(=O)N4CCCCC4)cnn23)c1)C1CC1 [Example 94, N-(3-(3-(piperidine-1-carbonyl)pyrazolo[1,5-a]pyridin-7-yl)phenyl)cyclopropanecarboxamide]
- fold induction at 1 µM (A549 cells): > 1.5
- IC50 (human 15-PGDH): ≤ 0.1 µM

Structure (SMILES): O=C1NCc2ccc(-c3cccc4c(C(=O)N5CCCC(C(F)(F)F)C5)cnn34)cc21 (stereo not drawn) [Example 398, 6-(3-(3-(trifluoromethyl)piperidine-1-carbonyl)pyrazolo[1,5-a]pyridin-7-yl)isoindolin-1-one]
- fold induction at 1 µM (A549 cells): > 1.5
- IC50 (human 15-PGDH): ≤ 0.1 µM

Structure (SMILES): COCCNC(=O)c1ccc(-c2cccc3c(C(=O)N4CCCCC4)cnn23)cn1 [Example 78, N-(2-methoxyethyl)-5-(3-(piperidine-1-carbonyl)pyrazolo[1,5-a]pyridin-7-yl)picolinamide]
- fold induction at 1 µM (A549 cells): > 1.5
- IC50 (human 15-PGDH): ≤ 0.1 µM

Structure (SMILES): O=C(c1cnn2c(-c3ccc(NCCc4cccnc4)nc3)cccc12)N1CCCCC1 [Example 332, piperidin-1-yl(7-(6-((2-(pyridin-3-yl)ethyl)amino)pyridin-3-yl)pyrazolo[1,5-a]pyridin-3-yl)methanone]
- fold induction at 1 µM (A549 cells): > 1.5
- IC50 (human 15-PGDH): ≤ 0.1 µM

Structure (SMILES): O=C(c1cnn2c(-c3ccc(-c4noc(=O)[nH]4)cc3F)cccc12)N1CCCCC1 [Example 295, 3-[3-fluoro-4-[3-(piperidine-1-carbonyl)pyrazolo[1,5-a]pyridin-7-yl]phenyl]-4H-1,2,4-oxadiazol-5-one]
- fold induction at 1 µM (A549 cells): > 1.5
- IC50 (human 15-PGDH): ≤ 0.1 µM

Structure (SMILES): N#Cc1c(F)cc(-c2cccc3c(C(=O)N4CCCCC4)cnn23)cc1F [Example 290, 2,6-difluoro-4-(3-(piperidine-1-carbonyl)pyrazolo[1,5-a]pyridin-7-yl)benzonitrile]
- fold induction at 1 µM (A549 cells): > 1.5
- IC50 (human 15-PGDH): ≤ 0.1 µM

Structure (SMILES): O=C(c1cnn2c(-c3ccc(Br)nc3)cccc12)N1CCCCC1 [Example 313, (7-(6-bromopyridin-3-yl)pyrazolo[1,5-a]pyridin-3-yl)(piperidin-1-yl)methanone]
- fold induction at 1 µM (A549 cells): > 1.5
- IC50 (human 15-PGDH): ≤ 0.1 µM

Structure (SMILES): O=C(c1cnn2c(-c3cccc(-c4nnn[nH]4)c3)cccc12)N1CCCCC1 [Example 113, (7-(3-(1H-tetrazol-5-yl)phenyl)pyrazolo[1,5-a]pyridin-3-yl)(piperidin-1-yl)methanone]
- fold induction at 1 µM (A549 cells): > 1.5
- IC50 (human 15-PGDH): ≤ 0.1 µM

Structure (SMILES): O=C1CC(C(=O)Nc2ccc(-c3cccc4c(C(=O)N5CCCCC5)cnn34)cn2)CCN1 (stereo not drawn) [Example 105, 2-oxo-N-(5-(3-(piperidine-1-carbonyl)pyrazolo[1,5-a]pyridin-7-yl)pyridin-2-yl)piperidine-4-carboxamide]
- Increased PGE2 production in A549 cells (A549 cells): ++ (key: +: 0 < PGE2 increasing ability < 1.5; ++: PGE2 increasing ability ≥ 1.5)
- IC50 (human 15-PGDH): ≤ 0.1 µM

Structure (SMILES): O=C(c1cnn2c(-c3cc(-c4cncc(F)c4)nc(N4CCOC4=O)c3)cccc12)N1CCCCC1 [Example 370, 3-(5'-fluoro-4-(3-(piperidine-1-carbonyl)pyrazolo[1,5-a]pyridin-7-yl)-[2,3'-bipyridin]-6-yl)oxazolidin-2-one]
- fold induction at 1 µM (A549 cells): > 1.5
- IC50 (human 15-PGDH): ≤ 0.1 µM

Structure (SMILES): O=C(c1cnn2c(-c3ccc(N4CC5CCC4CC5)nc3)cccc12)N1CCCCC1 [Example 216, (7-(6-(2-azabicyclo[2.2.2]octan-2-yl)pyridin-3-yl)pyrazolo[1,5-a]pyridin-3-yl)(piperidin-1-yl)methanone]
- fold induction at 1 µM (A549 cells): > 1.5
- IC50 (human 15-PGDH): ≤ 0.1 µM
